The subject of data set [1] is TSPO. The conditions noted are these: cited from earlier work; for BPND of whole brain: monkey brain.
Data set [2] addresses TSPO. Also noted: method as in PMID 25123416, PMID 34756026. The conditions noted are these: human brain homogenates; against [^3H]PK11195; cited from earlier work.
Data set [3] has as its system 18 kDa translocator protein (TSPO). Kind of data set: PET imaging of [^18F]SF51 in rhesus monkey brain with kinetic analysis (2TCM, Logan plot, Lassen plot). It counts as in vivo. As to conditions: radioligand [^18F]SF51. How it is done: Electrocardiogram, body temperature, heart rate, and respiratory rate measures were monitored throughout the scan.
Brain PET imaging was performed using a microPET Focus 220 camera (Siemens Medical Solution; Knoxville, TN). […] For baseline experiments, 20 mL of a vehicle containing 20% (2-hydroxypropyl)-β-cyclodextrin and two equivalents of HCl were injected intravenously 10 min before radioligand administration. For the blocked experiment, PK11195 was dissolved in vehicle and then injected intravenously (5 mg/kg) 10 min before radioligand injection for all three monkeys. One of the three monkeys underwent an additional blocked scan with 5 mg/kg of PBR28, performed using a MultiScan™ LFER 150 PET/CT (Mediso USA, LLC; Arlington, VA). The interval between baseline and blocked imaging sessions was at least three weeks in order to allow the monkey to recover from arterial blood sampling. Focus 220 PET images were histogrammed into 30 time frames (6 × 30, 3 × 60, 2 × 120, 4 × 300, and 15 × 600 s) and reconstructed using Fourier rebinning plus a two-dimensional filtered back-projection with scatter and attenuation correction. MultiScan LFER PET images were reconstructed with 3D-OSEM with two iterations and nine subsets and were corrected for scatter and attenuation.
PET images were co-registered to a standardized monkey MRI template using PMOD software (PMOD version 4.1, PMOD Technologies Ltd.; Zurich, Switzerland). Thirty-three predefined regions of interest (ROIs) from a monkey brain template were applied to the co-registered PET images to obtain regional time-activity curves (Supplementary Table S2). Brain uptake was expressed as standardized uptake value (SUV), which normalizes for injected radioactivity and body weight. Using the brain time-activity curves and the radiometabolite-corrected arterial input function, the total VT was derived from a two-tissue compartment model (2TCM). Receptor occupancy by PK11195 and nondisplaceable distribution volume (VND/fP) of [^18F]SF51 were determined by an axes-transformed Lassen plot, where the y-axis reports the difference in VT between the baseline and the blocked scans, corrected by the respective fp values, and the x-axis reports the values at baseline (VTbase/fPbase).

As to `CC[C@@H](C)N([11CH3])C(=O)c1nc(-c2ccccc2Cl)c2ccccc2n1` [[^11C]ER176], the “VT/fP in the whole brain” value in data set [1] (monkey) is given as 186 mL·cm^−3.
On to `CC[C@@H](C)N([11CH3])C(=O)c1nc(-c2cccc(F)c2)c2ccccc2n1` [[^11C]SF51], for which the “BPND of whole brain” value in data set [1] is 8.1.
Take `CC[C@@H](C)N(C)C(=O)c1nc(-c2ccccc2Cl)c2ccccc2n1` [ER176]: the “Ki ratio between LAB and HAB” value in data set [2] is on record as 1.28. In addition, the “BPND of whole brain” value in data set [1] was 8.9.
With `CCC(C)N(C)C(=O)c1cc2ccccc2c(-c2ccccc2Cl)n1` (stereo not drawn) [PK11195, reference compound], the “Receptor occupancy (Lassen plot)” value in data set [3] (PK11195 5 mg/kg i.v., three rhesus monkeys) was determined as 102 ± 3%. Besides, in data set [3] (PK11195 5 mg/kg, mean ± SD, n = 3), the “Slope of Lassen plot (= occupancy)” value stood at 1.02 ± 0.03.

(Values after article PMC10382351, “In vivo evaluation of a novel ^18F-labeled PET radioligand for translocator protein 18 kDa (TSPO) in monkey brain” (European Journal of Nuclear Medicine and Molecular Imaging, 2023).)
